Experimental data reported in US8143222B2, “Modular platform for targeted therapeutic delivery” (Washington University, priority 2007, dated 2012).
No end group written: not given here.

Columns and labels:
[1] = test system: murine pancreatic cancer cell lines; assay: S2-BH3 apoptosis in murine pancreatic cancer cell lines; format: cell-based; details: up to 10 μM
Protocol: (§1) Tumor Cells are seeded at a density of 0.2 to 0.5×10^6 cells per mL in 12-well plates and incubated at 37° C. for at least 24 hours (murine cancer cells) or 48 hours (Human cancer cells). After incubation, S2-fusion protein is added to the cell culture medium. The cells are then incubated for 18 hours (active caspase 3) or 24 hours (TUNEL) at 37° C. in humidified 5% CO2. Apoptosis is detected by FACS analysis after staining cells for active caspase-3 (Cell Signaling, Boston, Mass.) or with the APO-BRDU kit (Phenix Flow Systems, San Diego, Calif.). Briefly, cells are washed with PBS, treated with trypsin-EDTA to remove adhesion molecules, and washed again. After centrifugation at 1,200 rpm for 10 min, cells are fixed with 1% paraformaldehyde and washed with PBS. After centrifugation at 1,800 rpm for 10 min, cells are fixed with 90% methanol at −20° C. and washed with PBS. Each pellet is resuspended in 1:100 anti-active caspase-3 antibody (1 μg/ml caspase 3, PBS with 5% FBS) or Br-duTP with TdT, and incubated overnight at 4° C. […] Cell fluorescence signals is determined using a FACScan flow cytometer (BD Biosciences) and analyzed with CellQuest software (BD Biosciences) to measure the percentage of apoptotic cells. […]

[2] = test system: human pancreatic cancer cell lines; assay: S2-BH3 apoptosis in human pancreatic cancer cell lines; format: cell-based; details: up to 10 μM
Protocol: as §1

[3] = test system: established murine pancreas cancers; assay: systemic (intraperitoneal) S2-BH3 in mice with established pancreas cancers; details: seven intraperitoneal doses over 14 days
Protocol: The intradermal location is used to facilitate accurate tumor measurements. Tumor diameter is measured with calipers every two days in two dimensions and the data are recorded. Mice are euthanized when the tumors reach 2 cm or ulcerate. In the subcutaneous model, 100,000 Panc-02 cells are utilized.
In these experiments, we have completed the first in vivo administration of our novel therapeutic.

[4] = test system: human pancreas cancer cells; assay: apoptosis screen of TAT-CTMP fusion peptides, human cells; format: cell-based
Protocol: as §1

AsPC-1 = assay: Tat-CTMP with gemcitabine, % active caspase-3 by flow cytometry; format: cell-based, human; details: in the presence of gemcitabine (30 nM); 24 hours
Protocol: In these experiments, a combination of gemcitabine, a commonly-used chemotherapeutic drug for pancreas cancer and Tat-CTMP were tested in our in vitro model. In this study, two human pancreas adenocarcinoma cell lines (Panc-1 and AsPC-1) were treated with TAT-CTMP and TAT-CTMP in the presence and absence of gemcitabine (30 nM). […] Cells were subsequently harvested and % active caspase-3 was assessed by flow cytometry. Each experimental group represents an n=3. […] This experiment was repeated twice with multiple murine and human lines with similar results. (B and C) Antitumor effects of CTMP4 are the result of inhibition of Akt3 and its downstream effectors. […] Samples were treated for 1 hour prior to preparation of cell lysates. Immunoblots were subsequently prepared and stained with (B) anti-total AKT and phospho-AKT ([…]) and (C) anti-total GSK-3β and phospho GSK-3β.

[5] = test system: murine pancreas cancer cells; assay: apoptosis screen of TAT-CTMP fusion peptides, murine cells; format: cell-based
Protocol: as §1

Akt = assay: Western blot of phospho-Akt (Ser-473) in cell lysates; format: cell-based, human; details: Panc-1; one hour after treatment; wortmannin 1 μM, TAT-CTMP 10 μM
Protocol: In addition we looked at down stream effector GSK-3β using antibodies directed at GSK-3β and phospho GSK-3β.
Cells were subsequently harvested and % active caspase-3 was assessed by flow cytometry. Each experimental group represents an n=3. […] This experiment was repeated twice with multiple murine and human lines with similar results. (B and C) Antitumor effects of CTMP4 are the result of inhibition of Akt3 and its downstream effectors. […] Samples were treated for 1 hour prior to preparation of cell lysates. Immunoblots were subsequently prepared and stained with (B) anti-total AKT and phospho-AKT (Ser^473) and (C) anti-total GSK-3β and phospho GSK-3β.

pancreas cancer cells = assay: TAT-CTMP with radiation, apoptosis; format: cell-based; details: cotreatment with radiation
Description: CTMP binds to the C-terminal regulatory domain of Akt, inhibiting phosphorylation of Ser^473 and activation of Akt, and thereby promotes apoptosis. CTMP is highly conserved between mouse and human (85% of the residues are identical or conservative replacements) and has two functional domains, a highly structured N-terminal domain and a C-terminal thioesterase domain. Within the N-terminal domain there are four peptides that have structural elements that meet the criteria described by Maira et al (Science 294: 374-380, 2001) as mediating the interaction with Akt. In these experiments, we synthesized TAT-fusion peptides of each of these four domains and screened them for their ability to induce apoptosis in pancreas cancer cells. […] In FIG. 4, the left panel (A), presents a helical wheel diagram (Schiffer, M. and Edmundson, A. B., Biophys. J. 7, 121-135, 1967) of the active domain of CTMP. […] Furthermore, cotreatment with TAT-CTMP4 and radiation results in increased apoptosis (FIG. 4, right panel).

Compound | apoptosis [1] | apoptosis [2] | tumor growth rate ([3]; 400 μg) | Median Survival ([3]; n = 12 mice per group) [days] | apoptosis [4] | apoptosis (% active caspase-3) (AsPC-1) | apoptosis [5] | active phospho-AKT (Ser-473) (Akt) | radiation-induced apoptosis (pancreas cancer cells)
COc1ccc(C)cc1NC(=O)OC1C[C@H]2CCC[C@@H](C1)N2CCCCCCN (some centres unmarked) [SV119] | low, concentration-dependent level of apoptosis | low, concentration-dependent level of apoptosis |  |  |  |  |  |  | 
S2-BH3-in: control peptide: SW141 sigma-2 amino acid coupled to mutated inactive BH3 sequence EIWIAQEARRIGAEFNAYYAR (SEQ ID NO: 3) (also: SW141 sigma-2 ligand conjugated; listed as Homo sapiens) | no appreciable apoptosis | no appreciable apoptosis | not | 35 |  |  |  |  | 
TAT-CTMP: TAT-fusion peptide of the active N-terminal domain peptide CTMP4 of CTMP (YGRKKRRQRRRLDPKLMKEEQMSQAQLFTRSFDDGL) |  |  |  |  | induced appreciable apoptosis | additive increase in apoptosis | induced appreciable apoptosis | decreased active phospho-AKT | sensitizes pancreas cancer cells to radiation-induced apoptosis in a dose dependent fashion
